Measured values taken from the supplement of paper PMC10307832.

Tests used:
Experiment in all cases: relative viability (nuclei count vs DMSO), 5 days (fraction); higher = more cells survive
SGI-1776 + Bortezomib = compound: CN1CCC(CNc2ccc3ncc(-c4cccc(OC(F)(F)F)c4)n3n2)CC1 [SGI-1776] + CC(C)C[C@H](NC(=O)[C@H](Cc1ccccc1)NC(=O)c1cnccn1)B(O)O [Bortezomib] (partner 0.002 µM)
Procedure, shortened: (§1)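 Lung cancer cell lines, seeded in 1536-well plates, were treated the following day by pin tool with a single drug or with five library-drug doses (not always all listed) in √10 steps on top of a fixed anchor-drug dose. Cells were fixed and nuclei stained in one step after 5 days, and nuclei were counted. Relative viability is the nuclei count for treated wells divided by that for vehicle wells, reported as medians of duplicate plates.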

SGI-1776 + Tozasertib = compound: CN1CCC(CNc2ccc3ncc(-c4cccc(OC(F)(F)F)c4)n3n2)CC1 [SGI-1776] + Cc1cc(Nc2cc(N3CCN(C)CC3)nc(Sc3ccc(NC(=O)C4CC4)cc3)n2)n[nH]1 [Tozasertib] (partner 0.1 µM)
Procedure, shortened: as §1

Entinostat + Navitoclax = compound: Nc1ccccc1NC(=O)c1ccc(CNC(=O)OCc2cccnc2)cc1 [Entinostat] + CC1(C)CCC(c2ccc(Cl)cc2)=C(CN2CCN(c3ccc(C(=O)NS(=O)(=O)c4ccc(N[C@H](CCN5CCOCC5)CSc5ccccc5)c(S(=O)(=O)C(F)(F)F)c4)cc3)CC2)C1 [Navitoclax] (partner 0.5 µM)
Procedure, shortened: as §1

Entinostat + Pemetrexed = compound: Nc1ccccc1NC(=O)c1ccc(CNC(=O)OCc2cccnc2)cc1 [Entinostat] + Nc1nc2[nH]cc(CCc3ccc(C(=O)N[C@@H](CCC(=O)O)C(=O)O)cc3)c2c(=O)[nH]1 [Pemetrexed] (partner 0.2 µM)
Procedure, shortened: as §1

| Cell Line | relative viability (SGI-1776 + Bortezomib; first compound 0.08 µM) | relative viability (SGI-1776 + Bortezomib; first compound 0.8 µM) | relative viability (SGI-1776 + Bortezomib; first compound 2.53 µM) | relative viability (SGI-1776 + Bortezomib; first compound 8 µM) | relative viability (SGI-1776 + Tozasertib; first compound 0.08 µM) | relative viability (SGI-1776 + Tozasertib; first compound 0.8 µM) | relative viability (SGI-1776 + Tozasertib; first compound 2.53 µM) | relative viability (SGI-1776 + Tozasertib; first compound 8 µM) | relative viability (Entinostat + Navitoclax; first compound 0.02 µM) | relative viability (Entinostat + Navitoclax; first compound 0.06325 µM) | relative viability (Entinostat + Navitoclax; first compound 0.2 µM) | relative viability (Entinostat + Navitoclax; first compound 0.6325 µM) | relative viability (Entinostat + Navitoclax; first compound 2 µM) | relative viability (Entinostat + Pemetrexed; first compound 0.02 µM) | relative viability (Entinostat + Pemetrexed; first compound 0.06325 µM) | relative viability (Entinostat + Pemetrexed; first compound 0.2 µM) | relative viability (Entinostat + Pemetrexed; first compound 0.6325 µM) | relative viability (Entinostat + Pemetrexed; first compound 2 µM) |
| --- | --- | --- | --- | --- | --- | --- | --- | --- | --- | --- | --- | --- | --- | --- | --- | --- | --- | --- |
| HCC-15 | 1.03 | 1.03 | 1.02 | 0.886 | 0.386 | 0.312 | 0.118 | 0.112 | 0.753 | 0.699 | 0.58 | 0.302 | 0.196 | 0.237 | 0.215 | 0.237 | 0.197 | 0.159 |
| NCI-H838 | 0.848 | 0.973 | 0.764 | 0.353 | 0.262 | 0.265 | 0.195 | 0.213 | 1.21 | 1.27 | 1.17 | 0.694 | 0.296 | 0.231 | 0.222 | 0.268 | 0.247 | 0.183 |
| HOP-62 | 0.862 | 0.914 | 0.74 | 0.632 | 0.397 | 0.323 | 0.241 | 0.251 | 1.08 | 0.923 | 0.832 | 0.607 | 0.217 | 0.23 | 0.301 | 0.286 | 0.229 | 0.188 |
| NCI-H322M | 1.3 | 1.26 | 1.21 | 1.07 | 0.551 | 0.483 | 0.461 | 0.394 | 1.3 | 1.17 | 1.27 | 1.27 | 0.845 | 0.66 | 0.692 | 0.716 | 0.599 | 0.583 |
